Laboratory results from patent US20140323504A1, “Pyrazolo[4,3-c]Pyridine Derivatives As Kinase Inhibitors” (Cellzome Limited, priority 2011, published 2014).
“Also recorded” adds a separate entry of the source.

Target: T1, JAK3 (Homo sapiens, UniProt P52333)
T1 sequence (P52333 1-1124): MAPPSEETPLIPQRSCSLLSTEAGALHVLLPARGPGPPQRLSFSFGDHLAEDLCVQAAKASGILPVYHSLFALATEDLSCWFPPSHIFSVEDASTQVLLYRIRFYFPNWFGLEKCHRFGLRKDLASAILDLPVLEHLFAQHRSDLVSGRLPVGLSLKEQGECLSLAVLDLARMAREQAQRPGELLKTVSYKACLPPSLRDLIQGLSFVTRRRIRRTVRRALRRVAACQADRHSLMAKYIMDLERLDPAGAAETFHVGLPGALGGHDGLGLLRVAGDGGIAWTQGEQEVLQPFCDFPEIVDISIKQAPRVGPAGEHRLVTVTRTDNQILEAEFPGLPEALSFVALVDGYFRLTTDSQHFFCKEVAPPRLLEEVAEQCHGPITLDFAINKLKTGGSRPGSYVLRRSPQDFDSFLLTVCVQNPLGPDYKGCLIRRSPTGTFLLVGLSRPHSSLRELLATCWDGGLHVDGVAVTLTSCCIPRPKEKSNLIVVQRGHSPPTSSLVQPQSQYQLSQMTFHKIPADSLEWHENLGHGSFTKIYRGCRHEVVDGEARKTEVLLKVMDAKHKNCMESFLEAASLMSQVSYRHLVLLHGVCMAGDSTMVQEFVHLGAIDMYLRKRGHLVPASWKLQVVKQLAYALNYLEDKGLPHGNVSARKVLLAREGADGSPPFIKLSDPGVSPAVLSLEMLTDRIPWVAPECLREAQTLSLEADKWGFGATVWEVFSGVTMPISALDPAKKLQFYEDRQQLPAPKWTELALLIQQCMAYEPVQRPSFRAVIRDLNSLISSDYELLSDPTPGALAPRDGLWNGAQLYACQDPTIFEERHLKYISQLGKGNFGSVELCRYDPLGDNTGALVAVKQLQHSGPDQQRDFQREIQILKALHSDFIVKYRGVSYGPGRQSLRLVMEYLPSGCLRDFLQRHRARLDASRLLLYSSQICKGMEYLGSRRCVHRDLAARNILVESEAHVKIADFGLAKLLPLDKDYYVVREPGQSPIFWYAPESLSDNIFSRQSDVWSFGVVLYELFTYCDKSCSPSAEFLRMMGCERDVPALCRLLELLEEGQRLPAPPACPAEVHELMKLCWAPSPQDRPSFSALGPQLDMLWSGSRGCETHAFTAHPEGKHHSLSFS
Experiment: Mass spectrometry identification of a JAK3 peptide modified by compound
Type: binding
Set-up: endogenous in cells; host or cells: Jurkat cells (ATCC TIB-152, clone E6-1) lysate; immunoprecipitated with anti-JAK3 antibody
Conditions: Jurkat cell lysate, 10 μM compound, 45 minutes, JAK3 immunoprecipitation, LC-MS/MS
Protocol: Mass spectrometry analysis of immunoprecipitated JAK3 after compound treatment was used to determine whether compound example 1 covalently binds to JAK3. Jurkat cell lysate was pre-incubated with 10 μM of compound example 1 for 45 minutes. Control samples were incubated without compound (DMSO controls). Subsequently JAK3 was immunoprecipitated with an anti-JAK3 antibody (Abeam ab45141). In addition, a control experiment was performed with anti-IgG (mock immunoprecipitation). The precipitated proteins were separated by SDS-polyacrylamide gel electrophoresis. The gel was stained with colloidal Coomassie and stained areas of each gel lane were cut out and subjected to in-gel proteolytic digestion with trypsin. The peptides originating from the three samples were labeled with iTRAQ reagents as shown in Table 13 and the combined samples were analyzed with a nano-flow liquid chromatography system coupled online to a tandem mass spectrometer (LC-MS/MS) experiment followed by iTRAQ reporter ion quantification in the MSMS spectra (Ross et al., 2004. Mol. Cell. Proteomics 3(12):1154-1169). The gel area containing JAK3 was analysed for 270 minutes with HCDiq (high mass accuracy MSMS spectra) on a Orbitrap Velos mass spectrometer. For the Mascot search standard parameters plus a variable modification of cysteine by compound example 1 was used. […]

For `C=CC(=O)Nc1cccc(Cn2ncc3cnc(Nc4cnn(C)c4)nc32)c1` [Example 1, N-(3-((6-((1-Methyl-1H-pyrazol-4-yl)amino)-1H-pyrazolo[3,4-d]pyrimidin-1-yl)methyl)phenyl)acrylamide], the “covalent binding to JAK3 (modified residue/peptide)” value was “modified at cysteine 909; also recorded: covalently bound to cystein residue 909 (Cys909) of JAK3”.
